# Test results taken from ChEMBL document CHEMBL4130368, “Thienopyrimidine derivatives exert their anticancer efficacy via apoptosis induction, oxidative stress and mitotic catastrophe” (Eur J Med Chem, 2017).
# Legend:
# HCT-116 = test: Antiproliferative activity against human HCT116 cells after 72 hrs by MTT assay; type: functional, cell-based; details: HCT-116, 72 h
# HCT-15 = test: Antiproliferative activity against human HCT15 cells after 72 hrs by MTT assay; type: functional, cell-based; details: HCT-15, 72 h
# LN-229 = test: Antiproliferative activity against human LN229 cells after 72 hrs by MTT assay; type: functional, cell-based; details: LN-229, 72 h
# [1] = Antiproliferative activity against human GBM10 cells after 72 hrs by MTT assay; type: functional, cell-based; details: GBM10, 72 h
# A2780 = test: Antiproliferative activity against human A2780 cells after 72 hrs by MTT assay; type: functional, cell-based; details: A2780, 72 h
# CHO = test: Cytotoxicity against CHO cells assessed as reduction in cell survival after 72 hrs by MTT assay; type: ADME, cell-based; details: Cricetulus griseus
# HepG2 = test: Antiproliferative activity against human HepG2 cells after 72 hrs by MTT assay; type: functional, cell-based; details: HepG2, 72 h
# NCI-H460 = test: Antiproliferative activity against human NCI-H460 cells after 24 hrs by MTT assay; type: functional, cell-based; details: NCI-H460, 24 h
# A549 = test: Antiproliferative activity against human A549 cells after 24 hrs by MTT assay; type: functional, cell-based; details: A549, 24 h
# U-251 = test: Antiproliferative activity against human U251 cells after 24 hrs by MTT assay; type: functional, cell-based; details: U-251, 24 h
# KB = test: Antiproliferative activity against human KB cells by MTT assay; type: functional, cell-based
# PC-3 = test: Antiproliferative activity against human PC3 cells after 72 hrs by MTT assay; type: functional, cell-based; details: PC-3, 72 h
SMILES,IC50 (HCT-116) [µM],IC50 (HCT-15) [µM],IC50 (A2780) [µM],IC50 (HepG2) [µM],IC50 (NCI-H460) [µM],IC50 (A549) [µM],IC50 (U-251) [µM],IC50 (KB) [µM],IC50 (PC-3) [µM],IC50 (LN-229) [µM],IC50 [1] [µM],IC50 (CHO) [µM]
COc1cccc(-c2nc3sc4c(c3c(=O)[nH]2)CCCC4)c1,> 100,> 100,9.6,,,,,,,> 100,> 100,> 100
O=c1c2c3c(sc2ncn1Cc1ccc(Br)cc1)CCCC3,,,,14.9,,,,,,,,
Oc1nc(-c2ccccc2)nc2sc3c(c12)CCCC3,8.3,4.8,> 100,,,,,,,18.3,12,> 100
Cc1ccc(-c2nc(O)c3c4c(sc3n2)CCCC4)cc1,> 100,> 100,86.8,,,,,,,99.1,69.9,> 100
O=c1[nH]c(-c2ccc(Cl)cc2Cl)nc2sc3c(c12)CCCC3,77.1,90.9,28.7,,,,,,,89.6,99.5,> 100
Nc1nc(NNC(=O)c2ccncc2)nc2sc3c(c12)CCCC3,,,,,7.7,18.9,13.3,,,,,
CCCCOc1nc2sc3c(c2c(=O)n1Cc1ccccc1)CCCC3,,,,,,,,19,,,,
COc1cccc(-c2nc3sc4c(c3c(=O)[nH]2)CCCC4)c1O,34.2,32.8,> 100,,,,,,,49.3,59.4,> 100
O=c1[nH]c(-c2cccc([N+](=O)[O-])c2)nc2sc3c(c12)CCCC3,2.8,1.9,91.8,,,,,,,8.3,12.6,> 100
O=c1[nH]c(-c2ccc(F)cc2)nc2sc3c(c12)CCCC3,9.1,8.6,> 100,,,,,,,16.9,14.5,> 100

# More lines, main results first:
IC50 (HCT-116) [µM],IC50 (HCT-15) [µM],IC50 (A2780) [µM],IC50 (HepG2) [µM],IC50 (NCI-H460) [µM],IC50 (A549) [µM],IC50 (U-251) [µM],IC50 (KB) [µM],IC50 (PC-3) [µM],SMILES,IC50 (LN-229) [µM],IC50 [1] [µM],IC50 (CHO) [µM]
22.3,26.3,7.3,,,,,,,COc1cc(OC)cc(-c2nc(O)c3c4c(sc3n2)CCCC4)c1,48.1,41.9,> 100
,5.33,,,,,,,5.33,O=C(CSc1nc2sc3c(c2c(=O)n1Cc1ccccc1)CCCC3)NNC(=S)Nc1ccccc1,,,
33.8,19.2,> 100,,,,,,,Oc1nc(-c2ccc(Cl)cc2)nc2sc3c(c12)CCCC3,33.8,33.2,> 100
19.6,11,1.9,,,,,,,COc1ccc(-c2nc(O)c3c4c(sc3n2)CCCC4)cc1OC,14.5,12.5,> 100
> 100,> 100,> 100,,,,,,,N#Cc1ccc(-c2nc3sc4c(c3c(=O)[nH]2)CCCC4)cc1,> 100,> 100,> 100
71.1,65.6,> 100,,,,,,,O=[N+]([O-])c1ccc(-c2nc(O)c3c4c(sc3n2)CCCC4)cc1,44.2,51.7,> 100
